This data set can be described thus: In vitro dissolution test, microcentrifuge method, in phosphate buffered saline (PBS) pH 6.5. Format: physicochemical. Conditions: for Concentration / AUC: Table 18, Drug 10 or Drug 11, PBS pH 6.5, 37° C., TCmax 1000 μg/mL. The method, then:
The compositions comprising the CETP inhibitor and concentration-enhancing polymer provide enhanced concentration of the dissolved CETP inhibitor in in vitro dissolution tests. […] An appropriate PBS solution is an aqueous solution comprising 20 mM sodium phosphate (Na2HPO4), 47 mM potassium phosphate (KH2PO4), 87 mM NaCl, and 0.2 mM KCl, adjusted to pH 6.5 with NaOH. An appropriate MFD solution is the same PBS solution wherein additionally is present 7.3 mM sodium taurocholic acid and 1.4 mM of 1-palmitoyl-2-oleyl-sn-glycero-3-phosphocholine. In particular, a composition of the present invention can be dissolution-tested by adding it to MFD or PBS solution and agitating to promote dissolution.
Indeed, for some extremely insoluble CETP inhibitors, in order to identify the MDC achieved it may be necessary to use an amount of test composition such that if all of the CETP inhibitor dissolved, the CETP inhibitor concentration would be 10,000-fold or even more, that of the equilibrium concentration of the CETP inhibitor.
The MDC is taken to be the maximum value of dissolved CETP inhibitor measured over the duration of the test.
Filtration can be conducted using a 13 mm, 0.45 μm polyvinylidine difluoride syringe filter sold by Scientific Resources under the trademark TITAN®. Centrifugation is typically carried out in a polypropylene microcentrifuge tube by centrifuging at 13,000 G for 60 seconds. Other similar filtration or centrifugation methods can be employed and useful results obtained.
The spray-dried dispersions of Examples 6 and 7 were evaluated in an in vitro dissolution test using a microcentrifuge method. In this test, the spray-dried dispersion was added to a microcentrifuge tube for a Drug 2 dose of about 1000 μg/mL (7.2 mg for Example 6, 18 mg for Example 7). The tube was placed in a 37° C. sonicating bath, and 1.8 mL phosphate buffered saline (PBS) at pH 6.5 and 290 mOsm/kg was added. The samples were quickly mixed using a vortex mixer for about 60 seconds. The samples were centrifuged at 13,000 G at 37° C. for 1 minute. The resulting supernatant solution was then sampled and diluted 1:6 (by volume) with methanol and then analyzed by high-performance liquid chromatography (HPLC). The contents of the tubes were mixed on the vortex mixer and allowed to stand undisturbed at 37° C. until the next sample was taken. Samples were collected at 4, 10, 20, 40, 90, and 1200 minutes.
For Control 2, an in vitro dissolution test was performed using the procedures described above except that 1.8 mg of crystalline Drug 2 was used.
In this method, 7.2 mg of each spray-dried dispersion was added to a 2-mL microcentrifuge tube. The tube was placed in a 37° C. sonicating bath, and 1.8 mL of a phosphate-buffered saline (PBS) solution at pH 6.5 and 290 mOsm/kg was added, resulting in a TCmax of 400 μg/mL. The samples were quickly mixed using a combination of vortex mixer and sonication for about 90 seconds. The samples were centrifuged at 13,000 G at 37° C. for 1 minute. The resulting supernatant solution was then sampled and diluted 1:6 (by volume) with methanol and then analyzed by HPLC. The tubes were then mixed on the vortex mixer and allowed to stand undisturbed at 37° C. until the next sample. Samples were collected at 4, 10, 20, 40, 90 and 1200 minutes.
For Control 5, an in vitro dissolution test was performed using the procedure described above, except that 0.72 mg of non-crystalline Drug 3 was placed in a microcentrifuge tube and mixed with 1.8 mL of PBS.
In this method, 15 mg of each SDD was added to a 2-mL microcentrifuge tube. The tube was placed in a 37° C. sonicating bath, and 1.5 mL of a phosphate-buffered saline (PBS) solution at pH 6.5 and 290 mOsm/kg) was added, resulting in a TCmax of 1000 μg/mL. The samples were quickly mixed using a combination of vortex mixer and sonication for about 90 seconds.

The mark [1] stands for this setting: Table 19: Drugs 10 and 11, PBS pH 6.5, TCmax 1000 μg/mL.

Each structure is given as a SMILES string.

Take `CC(C)c1cc2c(c(-c3ccc(F)cc3)c1[C@@H](F)c1ccc(C(F)(F)F)cc1)[C@@H](O)CC1(CCC1)C2` [Control 12, (4′S)-5′-(4-fluorophenyl)-6′-[(S)-fluoro[4-(trifluoromethyl)phenyl]methyl]-3′,4′-dihydro-7′-(1-methylethyl)-spiro[cyclobutane-1,2′(1′H)-naphthalen]-4′-ol]: the Concentration was 0 ng/mL (0 min); 0 ng/mL (4 min); 1000 ng/mL (10 min); 3000 ng/mL (20 min); 6000 ng/mL (40 min); 1000 ng/mL (90 min). The Concentration (1200 min) amounted to 0 ng/mL. The AUC is, setting by setting: (to 0 min) 0 min-μg/mL; (to 4 min) 0 min-μg/mL; (to 10 min) 0 min-μg/mL; (to 20 min) 0 min-μg/mL; (to 40 min) 100 min-μg/mL; (to 90 min) 300 min-μg/mL. For the same compound, where the note is “to 1200 min”, the AUC is reported as 1,100 min-μg/mL. The AUC90 under setting [1] was determined as 300 min-μg/mL. Further, the “Cmax, 90” value under setting [1] stood at 6000 ng/mL.

Regarding `CCc1cc(Oc2cccc(N(Cc3cccc(OC(F)(F)C(F)F)c3)C[C@@H](O)C(F)(F)F)c2)ccc1Cl` [Control 13, (2R)-3-[[3-(4-chloro-3-ethylphenoxy)phenyl][[3-(1,1,2,2-tetrafluoroethoxy)phenyl]methyl]amino]-1,1,1-trifluoro-2-propanol], the Concentration reads like this: (0 min) 0 ng/mL; (4 min) 1000 ng/mL; (10 min) 1000 ng/mL; (20 min) 1000 ng/mL; (40 min) 1000 ng/mL; (90 min) 1000 ng/mL. Also, the Concentration (1200 min) was found to be 0 ng/mL. The AUC is, setting by setting: (to 0 min) 0 min-μg/mL; (to 4 min) 0 min-μg/mL; (to 10 min) 0 min-μg/mL; (to 20 min) 0 min-μg/mL; (to 40 min) 0 min-μg/mL; (to 90 min) 100 min-μg/mL. For the same compound, the AUC (to 1200 min) is recorded as 600 min-μg/mL. Also, under setting [1], the AUC90 came to 80 min-μg/mL. The “Cmax, 90” value under setting [1] was 1000 ng/mL.

Turning to `CC[C@@H]1C[C@H](N(Cc2cc(C(F)(F)F)cc(C(F)(F)F)c2)C(=O)OC)c2cc(C(F)(F)F)ccc2N1C(=O)OC(C)C` [Control 14, [2R,4S]4-[(3,5-bis-trifluoromethyl-benzyl)-methoxycarbonyl-amino]-2-ethyl-6-trifluoromethyl-3,4-dihydro-2H-quinoline-1-carboxylic acid isopropyl ester], under “Table 34: Drug 12, PBS”, the AUC90 is recorded as less than 88 min-μg/mL and the “Cmax, 90” value is less than 1000 ng/mL.

The values above are taken from patent publication US8389011B2, “Pharmaceutical compositions of cholesteryl ester transfer protein inhibitors” (Bend Research, Inc., priority 2000, dated 2013).
